In PubChem BioAssay (NCI):
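Results reflect a 48-hour exposure of cells in 96-well plates to compound at five concentrations. TGI denotes the concentration required for complete inhibition of growth.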

Tests used:
Assay in all cases: NCI anticancer screen, dose series, 48 h
NCI-H23 lung = tested on: NCI-H23 lung
A498 renal = tested on: A498 renal
OVCAR-5 ovarian = tested on: OVCAR-5 ovarian
UACC-62 melanoma = tested on: UACC-62 melanoma
SK-OV-3 ovarian = tested on: SK-OV-3 ovarian
SF-268 CNS = tested on: SF-268 CNS
COLO 205 colon = tested on: COLO 205 colon
TK-10 renal = tested on: TK-10 renal
SF-539 CNS = tested on: SF-539 CNS
MOLT-4 leukemia = tested on: MOLT-4 leukemia
MALME-3M melanoma = tested on: MALME-3M melanoma
NCI-H226 lung = tested on: NCI-H226 lung
HS 578T breast = tested on: HS 578T breast
RXF 393 renal = tested on: RXF 393 renal

Row | SMILES | TGI (NCI-H23 lung) | TGI (A498 renal) | TGI (OVCAR-5 ovarian) | TGI (UACC-62 melanoma) | TGI (SK-OV-3 ovarian) | TGI (SF-268 CNS) | TGI (COLO 205 colon) | TGI (TK-10 renal) | TGI (SF-539 CNS) | TGI (MOLT-4 leukemia) | TGI (MALME-3M melanoma) | TGI (NCI-H226 lung) | TGI (HS 578T breast) | TGI (RXF 393 renal)
1 | CCc1n[nH]c(=O)n1N | > 100 µM | > 100 µM | > 100 µM | > 100 µM | > 100 µM | > 100 µM | > 100 µM | > 100 µM | > 100 µM | > 100 µM | > 100 µM | > 100 µM | > 100 µM | –
2 | C1=C(c2ccccc2)NC2=N[C@H]3CCCC[C@@H]3N2C1c1ccccc1 (some centres undefined) | 25.8 µM | 30.2 µM | 26.3 µM | 28.6 µM | 29.3 µM | 51.7 µM | 25.2 µM | 22.1 µM | – | 28.3 µM | 26.6 µM | 28.9 µM | 41.2 µM | –
3 | CN1CC[C@@]2(c3cccc(O)c3)CC(=O)/C(=C/c3ccc(Cl)c(Cl)c3)[C@H]1C2 | 15.9 µM | 26.5 µM | 14.4 µM | – | – | 7.01 µM | – | 27 µM | – | 8.47 µM | 13.1 µM | – | 7.19 µM | 5.62 µM
4 | CC(C)(C)C1CC[C@H](O)[C@H]([C@@H](O)CC2CC(=O)N(c3ccccc3)C(=O)C2)C1 (some centres undefined) | > 100 µM | > 100 µM | > 100 µM | 74.9 µM | – | > 100 µM | – | > 100 µM | > 100 µM | > 100 µM | > 100 µM | > 100 µM | > 100 µM | > 100 µM
5 | COc1ccccc1NC(=S)Nc1ccccn1 | – | > 100 µM | > 100 µM | > 100 µM | > 100 µM | > 100 µM | > 100 µM | > 100 µM | > 100 µM | > 100 µM | > 100 µM | > 100 µM | > 100 µM | > 100 µM
6 | N=c1oc2ccccc2cc1C(=O)Nc1ccccn1 | > 100 µM | > 100 µM | > 100 µM | > 100 µM | > 100 µM | > 100 µM | > 100 µM | – | > 100 µM | > 100 µM | 54 µM | > 100 µM | > 100 µM | > 100 µM
7 | CN(C)Cc1cc(C(=O)/C=C/c2ccc(Cl)cc2Cl)cc(CN(C)C)c1O | 22.6 µM | 8.49 µM | 28.7 µM | – | – | 20 µM | 2.76 µM | 24.2 µM | 17 µM | 4.71 µM | 23.5 µM | 24 µM | 15.8 µM | 10.7 µM
8 | O=C1CSc2ccnc(=O)n21 | > 100 µM | > 100 µM | > 100 µM | > 100 µM | > 100 µM | > 100 µM | > 100 µM | > 100 µM | > 100 µM | > 100 µM | > 100 µM | – | > 100 µM | > 100 µM
9 | CSc1cc(Cl)c(C(=O)Nc2ccccc2)cc1S(=O)(=O)n1cc[nH]c1=O | > 100 µM | > 100 µM | > 100 µM | > 100 µM | > 100 µM | > 100 µM | > 100 µM | > 100 µM | > 100 µM | > 100 µM | > 100 µM | – | > 100 µM | > 100 µM
10 | CC1=NN(c2ccccc2Cl)C2(C1)C(Cl)C(=O)N2c1nc2ccccc2s1 (centres undefined) | > 100 µM | > 100 µM | > 100 µM | > 100 µM | > 100 µM | > 100 µM | > 100 µM | > 100 µM | – | 91.6 µM | > 100 µM | > 100 µM | > 100 µM | > 100 µM
11 | C#CCNC(CCCN=C(N)N)C(=O)O (centres undefined) | > 100 µM | > 100 µM | > 100 µM | > 100 µM | > 100 µM | > 100 µM | > 100 µM | > 100 µM | – | > 100 µM | > 100 µM | > 100 µM | > 100 µM | > 100 µM
12 | O=C(O)c1cc(-c2ccc3cc(O)c(O)cc3c2)ccc1O | > 12.5 µM | > 12.5 µM | > 12.5 µM | > 12.5 µM | > 12.5 µM | > 12.5 µM | > 12.5 µM | > 12.5 µM | > 12.5 µM | > 12.5 µM | > 12.5 µM | > 12.5 µM | > 12.5 µM | –
13 | CCc1cccc(CC)c1Nc1nc(-c2ccccc2-c2ccccc2)cs1 | > 100 µM | > 100 µM | > 100 µM | > 100 µM | > 100 µM | > 100 µM | > 100 µM | > 100 µM | > 100 µM | > 100 µM | > 100 µM | – | > 100 µM | > 100 µM
14 | O=[N+]([O-])/C(C(Cl)=C(Cl)Cl)=C(\NCc1ccccc1)Sc1ccccc1 | 40.1 µM | 62.2 µM | > 100 µM | > 100 µM | > 100 µM | 57.4 µM | 33.2 µM | – | 38.9 µM | > 100 µM | 33.3 µM | 98.3 µM | 36 µM | –
15 | CCOC1OC(CO[Si](C)(C)C(C)(C)C)C(O)CC1n1ccc(=O)[nH]c1=O (centres undefined) | > 100 µM | > 100 µM | > 100 µM | > 100 µM | – | > 100 µM | > 100 µM | > 100 µM | > 100 µM | 69.1 µM | > 100 µM | > 100 µM | > 100 µM | > 100 µM
16 | CC(C)(C)c1cc(C(C)(C)C)c(SSc2c(C(C)(C)C)cc(C(C)(C)C)c(O)c2O)c(O)c1O | 22.8 µM | 27.5 µM | 31.3 µM | 18.8 µM | – | 24.7 µM | 27.5 µM | – | – | 10.4 µM | 36 µM | 35 µM | > 100 µM | 47.2 µM
17 | CCN1C(c2ccccc2)=CC(c2ccccc2)(C(Cl)(Cl)Cl)C=C1c1ccccc1 | 93.4 µM | 54.4 µM | 79 µM | – | – | 86.3 µM | – | > 100 µM | 37 µM | 61.8 µM | 24 µM | > 100 µM | > 100 µM | 72.2 µM
